Data as given in US6403816B1 (Dabur Research Foundation, priority 1997, dated 2002).

Experiments:
[1] = system: ECV304; assay: ECV304 endothelial cell proliferation, MTT assay; type: cell-based, human; settings: concentration causing 50% cytotoxicity; MTT after 72 hours
Method: 30 μl of ECV304 cell suspension (50×10^4 cells/ml in RPMI 1640 containing 10% FBS) followed by 150 μl of medium was added to the wells of a 96-well tissue culture plate (Nunc, Denmark) and incubated (37° C., 5% CO2) overnight. […] Each concentration was plated in triplicates. 20μl of medium alone was added to control wells. After 72 hours of incubation an MTT assay (Mosmann, 1983) was performed and percentage inhibition in proliferation of treated cells was calculated with respect to control cells.

[2] = system: DU145; assay: Tumor cell cytotoxicity assay, prostate; type: cell-based; settings: for Prostate ECS Ratio: ED50 DU145 / ED50 ECV304; for Prostate DU145 (ED50): concentration causing 50% cytotoxicity
Excerpt: (§1) The cytotoxicity assays for tumor cells have been described in detail in our application Ser. No. 09/040,856 filed in U.S. on Mar. 18, 1998.

[3] = system: L132; assay: Tumor cell cytotoxicity assay, lung; type: cell-based; settings: for Lung ECS Ratio: ED50 L132 / ED50 ECV304; for Lung L132 (ED50): concentration causing 50% cytotoxicity
Excerpt: as §1

[4] = system: HT-29; assay: Tumor cell cytotoxicity assay, colon; type: cell-based; settings: for Colon ECS Ratio: ED50 HT-29 / ED50 ECV304; for Colon HT-29 (ED50): concentration causing 50% cytotoxicity
Excerpt: as §1

[5] = system: human melanoma cell lines, Mel-1, Mel-2, and Mel-4; settings: Mel-1, Mel-2, Mel-4; cited from earlier work
[6] = system: MEL-2 cells; settings: cited from earlier work
[7] = system: A431, BC-1, COL-2, HT1080, KB, LNCaP, LU-1, U373, ZR-75-1; settings: cited from earlier work
[8] = system: PA-1; assay: Tumor cell cytotoxicity assay, ovary; type: cell-based; settings: for Ovary ECS Ratio: ED50 PA-1 / ED50 ECV304; for Ovary PA-1 (ED50): concentration causing 50% cytotoxicity
Excerpt: as §1

[9] = system: ECV304; assay: Tube-like-structure (TLS) formation of ECV304 cells on Matrigel; type: cell-based, human; settings: 24-48 hours
Method: Matrigel (70 μl) was placed into each well of a 96-well culture plate at 4° C. and was allowed to polymerize by incubation at 37° C. for 30 min. ECV304 (1×10^4) cells were seeded on the Matrigel in 200 μl DMEM containing 10% FBS. […] Five different phase-contrast microscopic fields (4×) were viewed and total tube area of the tube-like-structures (TLS) measured using Video Pro 32 Image Analysis system. Percent reduction in total tube area was given as the mean of the data from five fields. Percent inhibition of TLS was calculated with reference to Controls(no drug).

## CC(C)C1CCC2(C(=O)O)CCC3(C)C(CCC4C5(C)CCC(OC(=O)c6cc(F)cc(F)c6)C(C)(C)C5CCC43C)C12 (stereo not drawn) [MJ935-RS]
[1]
  Endothelial ECV304 (ED50): 0.7 µg/mL
[2]
  Prostate ECS Ratio: 4.5
  Prostate DU145 (ED50): 3.2 µg/mL
[3]
  Lung ECS Ratio: 1.7
  Lung L132 (ED50): 1.2 µg/mL
[4]
  Colon ECS Ratio: >14.3
  Colon HT-29 (ED50): >10 µg/mL

## C=C(C)[C@@H]1CC[C@]2(C(=O)O)CC[C@]3(C)[C@H](CC[C@@H]4[C@@]5(C)CC[C@H](O)C(C)(C)[C@@H]5CC[C@]43C)[C@@H]12 [Betulinic acid]
[5]
  Growth of melanoma cell lines: inhibited significantly
[6]
  In vitro growth of MEL-2 cells: inhibit in vitro growth
[7]
  ED50, other cell lines tested: greater than 20 μg/ml

## C=CC(=O)OC(=O)C12CCC(C(=C)C)C1C1CCC3C4(C)CCC(O)C(C)(C)C4CCC3(C)C1(C)CC2 (stereo not drawn) [MJ1101-RS]
[1]
  Endothelial ECV304 (ED50): 4.0 µg/mL
[2]
  Prostate ECS Ratio: >2.5
  Prostate DU145 (ED50): >10 µg/mL
[3]
  Lung ECS Ratio: 0.43
  Lung L132 (ED50): 1.7 µg/mL
[8]
  Ovary ECS Ratio: >1
  Ovary PA-1 (ED50): >4 µg/mL
[4]
  Colon ECS Ratio: 2.5
  Colon HT-29 (ED50): >10 µg/mL

## CC(C)C1CCC2(C(=O)O)CCC3(C)C(CCC4C5(C)CCC(NNc6ccccc6)C(C)(C)C5CCC43C)C12 (stereo not drawn) [MJ878-RS]
[1]
  Endothelial ECV304 (ED50): 0.5 µg/mL
[2]
  Prostate ECS Ratio: 19.8
  Prostate DU145 (ED50): 9.9 µg/mL
[3]
  Lung ECS Ratio: 1.6
  Lung L132 (ED50): 0.8 µg/mL
[8]
  Ovary ECS Ratio: 7.0
  Ovary PA-1 (ED50): 3.5 µg/mL
[4]
  Colon ECS Ratio: 3.5
  Colon HT-29 (ED50): 1.75 µg/mL

## C=C(C)C1CCC2(C(=O)O)CCC3(C)C(CCC4C5(C)CCC(OC(=O)c6ccc(CCCCCCC)cc6)C(C)(C)C5CCC43C)C12 (stereo not drawn) [MJ1138-RS]
[1]
  Endothelial ECV304 (ED50): 1.7 µg/mL
[2]
  Prostate ECS Ratio: >5.8
  Prostate DU145 (ED50): >10 µg/mL
[3]
  Lung ECS Ratio: 4.1
  Lung L132 (ED50): 7 µg/mL
[8]
  Ovary ECS Ratio: >2.3
  Ovary PA-1 (ED50): >4 µg/mL
[4]
  Colon ECS Ratio: >5.89
  Colon HT-29 (ED50): >10 µg/mL

## CC(C)C1CCC2(C(=O)O)CCC3(C)C(CCC4C5(C)CCC(OC(=O)c6ccccc6C(F)(F)F)C(C)(C)C5CCC43C)C12 (stereo not drawn) [MJ943-RS]
[1]
  Endothelial ECV304 (ED50): 2.6 µg/mL
[2]
  Prostate ECS Ratio: >1.5
  Prostate DU145 (ED50): >4 µg/mL
[3]
  Lung ECS Ratio: 1.5
  Lung L132 (ED50): 4 µg/mL
[8]
  Ovary ECS Ratio: >1.53
  Ovary PA-1 (ED50): >4 µg/mL
[4]
  Colon ECS Ratio: 3.84
  Colon HT-29 (ED50): >10 µg/mL

## CC(C)C1CCC2(C(=O)O)CCC3(C)C(CCC4C5(C)CCC(N=Cc6ccc(F)c(F)c6)C(C)(C)C5CCC43C)C12 (stereo not drawn) [MJ998-RS]
[1]
  Endothelial ECV304 (ED50): 0.35 µg/mL
[2]
  Prostate ECS Ratio: 6.2
  Prostate DU145 (ED50): 2.2 µg/mL
[3]
  Lung ECS Ratio: 7.1
  Lung L132 (ED50): 2.5 µg/mL
[8]
  Ovary ECS Ratio: 3.7
  Ovary PA-1 (ED50): 1.3 µg/mL
[4]
  Colon ECS Ratio: 11.4
  Colon HT-29 (ED50): 4 µg/mL
[9]; 0.5 μg/ml
  % reduction in total tube area: 21.1%
[9]; 2 μg/ml
  % reduction in total tube area: 13.4%
[9]; 4 μg/ml
  % reduction in total tube area: 33.4%

## C=CC(=O)OC(=O)C12CCC(C(C)C)C1C1CCC3C4(C)CCC(O)C(C)(C)C4CCC3(C)C1(C)CC2 (stereo not drawn) [MJ1103-RS]
[1]
  Endothelial ECV304 (ED50): 2.0 µg/mL
[2]
  Prostate ECS Ratio: >2.0
  Prostate DU145 (ED50): >4 µg/mL
[3]
  Lung ECS Ratio: 2.0
  Lung L132 (ED50): 4 µg/mL
[8]
  Ovary ECS Ratio: 0.75
  Ovary PA-1 (ED50): 1.5 µg/mL
[4]
  Colon ECS Ratio: 5.0
  Colon HT-29 (ED50): 10 µg/mL

## C=C(C)C1CCC2(C(=O)O)CCC3(C)C(CCC4C5(C)CCC(OC(=O)c6cccc(C(F)(F)F)c6)C(C)(C)C5CCC43C)C12 (stereo not drawn) [MJ939-RS]
[1]
  Endothelial ECV304 (ED50): 0.9 µg/mL
[2]
  Prostate ECS Ratio: >11.1
  Prostate DU145 (ED50): >10 µg/mL
[3]
  Lung ECS Ratio: 3.0
  Lung L132 (ED50): 2.7 µg/mL
[8]
  Ovary ECS Ratio: >4.4
  Ovary PA-1 (ED50): >4 µg/mL
[4]
  Colon ECS Ratio: >11.1
  Colon HT-29 (ED50): >10 µg/mL

## C=C(C)C1CCC2(C(=O)O)CCC3(C)C(CCC4C5(C)CCC(OC(=O)c6ccc(CCCCC)cc6)C(C)(C)C5CCC43C)C12 (stereo not drawn) [MJ1104-RS]
[1]
  Endothelial ECV304 (ED50): 1.9 µg/mL
[2]
  Prostate ECS Ratio: 1.05
  Prostate DU145 (ED50): 2 µg/mL
[3]
  Lung ECS Ratio: 3.1
  Lung L132 (ED50): 5.9 µg/mL
[8]
  Ovary ECS Ratio: >2.1
  Ovary PA-1 (ED50): >4 µg/mL
[4]
  Colon ECS Ratio: 1.84
  Colon HT-29 (ED50): 3.5 µg/mL

## C=C(C)C1CCC2(C(=O)O)CCC3(C)C(CCC4C5(C)CCC(=NNc6ccccc6)C(C)(C)C5CCC43C)C12 (stereo not drawn) [MJ353-RS]
[1]
  Endothelial ECV304 (ED50): 2.4 µg/mL
[2]
  Prostate ECS Ratio: 2.7
  Prostate DU145 (ED50): 6.5 µg/mL
[3]
  Lung ECS Ratio: 1.9
  Lung L132 (ED50): 4.5 µg/mL
[8]
  Ovary ECS Ratio: 2.08
  Ovary PA-1 (ED50): 5 µg/mL
[4]
  Colon ECS Ratio: 4.2
  Colon HT-29 (ED50): >10 µg/mL

## CC(C)C1CCC2(C(=O)O)CCC3(C)C(CCC4C5(C)CCC(N=Cc6ccc(F)cc6F)C(C)(C)C5CCC43C)C12 (stereo not drawn) [MJ1065-RS]
[1]
  Endothelial ECV304 (ED50): 2.4 µg/mL
[2]
  Prostate ECS Ratio: 1.04
  Prostate DU145 (ED50): 2.5 µg/mL
[3]
  Lung ECS Ratio: 1.4
  Lung L132 (ED50): 3.4 µg/mL
[8]
  Ovary ECS Ratio: 0.54
  Ovary PA-1 (ED50): 1.3 µg/mL
[4]
  Colon ECS Ratio: 2.04
  Colon HT-29 (ED50): 4.9 µg/mL
[9]; 0.5 μg/ml
  % reduction in total tube area: 23.4%
[9]; 2 μg/ml
  % reduction in total tube area: 16.7%
[9]; 4 μg/ml
  % reduction in total tube area: 46.7%

## C=C(C)C1CCC2(C(=O)O)CCC3(C)C(CCC4C5(C)CCC(OC(=O)Cc6cc(OC)ccc6OC)C(C)(C)C5CCC43C)C12 (stereo not drawn) [MJ1108-RS]
[1]
  Endothelial ECV304 (ED50): 1.8 µg/mL
[2]
  Prostate ECS Ratio: 0.55
  Prostate DU145 (ED50): 1 µg/mL
[3]
  Lung ECS Ratio: 2.5
  Lung L132 (ED50): 4.6 µg/mL
[4]
  Colon ECS Ratio: >5.6
  Colon HT-29 (ED50): >10 µg/mL

## COc1ccc(NNC2CCC3(C)C(CCC4(C)C3CCC3C5C(C(C)C)CCC5(C(=O)O)CCC34C)C2(C)C)cc1 (stereo not drawn) [MJ912-RS]
[1]
  Endothelial ECV304 (ED50): 0.4 µg/mL
[2]
  Prostate ECS Ratio: 21.1
  Prostate DU145 (ED50): 8.5 µg/mL
[3]
  Lung ECS Ratio: >10
  Lung L132 (ED50): >4 µg/mL
[4]
  Colon ECS Ratio: 0.87
  Colon HT-29 (ED50): 0.35 µg/mL

## CC(C)C1CCC2(C(=O)O)CCC3(C)C(CCC4C5(C)CCC(OC(=O)c6ccc(F)cc6F)C(C)(C)C5CCC43C)C12 (stereo not drawn) [MJ937-RS]
[1]
  Endothelial ECV304 (ED50): 0.7 µg/mL
[2]
  Prostate ECS Ratio: 3.5
  Prostate DU145 (ED50): 2.5 µg/mL
[3]
  Lung ECS Ratio: 1.5
  Lung L132 (ED50): 1.1 µg/mL
[8]
  Ovary ECS Ratio: 2.3
  Ovary PA-1 (ED50): 1.6 µg/mL
[4]
  Colon ECS Ratio: 2.4
  Colon HT-29 (ED50): 1.7 µg/mL
[9]; 0.5 μg/ml
  % reduction in total tube area: 16.7%
[9]; 2 μg/ml
  % reduction in total tube area: 21%
[9]; 4 μg/ml
  % reduction in total tube area: 21.7%

## CC(C)C1CCC2(C(=O)O)CCC3(C)C(CCC4C5(C)CCC(=NOCc6ccc([N+](=O)[O-])cc6)C(C)(C)C5CCC43C)C12 (stereo not drawn) [MJ1098-RS]
[1]
  Endothelial ECV304 (ED50): 0.6 µg/mL
[2]
  Prostate ECS Ratio: 2.5
  Prostate DU145 (ED50): 1.5 µg/mL
[3]
  Lung ECS Ratio: 2.1
  Lung L132 (ED50): 1.3 µg/mL
[8]
  Ovary ECS Ratio: 2.7
  Ovary PA-1 (ED50): 1.6 µg/mL
[4]
  Colon ECS Ratio: 4.3
  Colon HT-29 (ED50): 2.6 µg/mL
[9]; 0.5 μg/ml
  % reduction in total tube area: 15%
[9]; 2 μg/ml
  % reduction in total tube area: 7.5%
[9]; 4 μg/ml
  % reduction in total tube area: 10%

## COC(=O)CCOC(=O)C12CCC(C(C)(Br)CBr)C1C1CCC3C4(C)CC(Br)C(=O)C(C)(C)C4CCC3(C)C1(C)CC2 (stereo not drawn) [MJ548-RS]
[1]
  Endothelial ECV304 (ED50): 2.5 µg/mL
[2]
  Prostate ECS Ratio: >4
  Prostate DU145 (ED50): >10 µg/mL
[3]
  Lung ECS Ratio: >4
  Lung L132 (ED50): >10 µg/mL
[8]
  Ovary ECS Ratio: 1.56
  Ovary PA-1 (ED50): 3.9 µg/mL
[4]
  Colon ECS Ratio: 4.0
  Colon HT-29 (ED50): >10 µg/mL
